Values after ≈ are worked out from the molar mass of the structure shown. Active and inactive are the calls of the source. No cut-off for these calls is given here.
Columns and labels:
Enterococcus faecalis = assay: Antibacterial activity against Enterococcus faecalis ATCC 29212 assessed as inhibition of bacterial growth incubated for 18 hrs by broth microdilution method; format: functional
[1] = test system: Staphylococcus epidermidis; assay: Antibacterial activity against biofilm producer Staphylococcus epidermidis ATCC 35984 assessed as inhibition of bacterial growth incubated for 18 hrs by broth microdilution method; format: functional
[2] = test system: Staphylococcus epidermidis; assay: Antibacterial activity against linezolid-resistant Staphylococcus epidermidis NIL 4399/19 assessed as inhibition of bacterial growth incubated for 18 hrs by broth microdilution method; format: functional
Streptococcus pneumoniae = assay: Antibacterial activity against Streptococcus pneumoniae ATCC 49619 assessed as inhibition of bacterial growth incubated for 18 hrs by broth microdilution method; format: functional
Escherichia coli = assay: Antibacterial activity against Escherichia coli ATCC 25922 assessed as inhibition of bacterial growth incubated for 18 hrs by broth microdilution method; format: functional
Staphylococcus aureus [3] = assay: Antibacterial activity against vancomycin-intermediate Staphylococcus aureus ATCC 700699 assessed as inhibition of bacterial growth incubated for 18 hrs by broth microdilution method; format: functional
[4] = test system: Staphylococcus epidermidis; assay: Antibacterial activity against methicillin-susceptible Staphylococcus epidermidis ATCC 12228 assessed as inhibition of bacterial growth incubated for 18 hrs by broth microdilution method; format: functional
Pseudomonas aeruginosa = assay: Antibacterial activity against Pseudomonas aeruginosa ATCC 27853 assessed as inhibition of bacterial growth incubated for 18 hrs by broth microdilution method; format: functional
[5] = Induction of hemolysis in horse RBC at 200 uM incubated for 1 hr; format: toxicity, cell-based, Equus caballus, Erythrocyte; settings: horse red blood cells (erythrocytes), read-out: Activity
[6] = Cytotoxicity against human MRC5 cells assessed as reduction in cell viability incubated for 24 hrs by MTT assay; format: toxicity, cell-based
[7] = Cytotoxicity against human BJ cells assessed as reduction in cell viability incubated for 24 hrs by MTT assay; format: toxicity, cell-based
Staphylococcus aureus [8] = assay: Antibacterial activity against biofilm producer Staphylococcus aureus RN450 assessed as inhibition of bacterial growth incubated for 18 hrs by broth microdilution method; format: functional
Staphylococcus aureus [9] = assay: Antibacterial activity against methicillin-susceptible Staphylococcus aureus ATCC 25923 assessed as inhibition of bacterial growth incubated for 18 hrs by broth microdilution method; format: functional
Enterococcus faecium = assay: Antibacterial activity against vancomycin-resistant Enterococcus faecium assessed as inhibition of bacterial growth incubated for 18 hrs by broth microdilution method; format: functional
Staphylococcus aureus [10] = assay: Antibacterial activity against methicillin-resistant Staphylococcus aureus clinical strain 19449 assessed as inhibition of bacterial growth incubated for 18 hrs by broth microdilution method; format: functional
Klebsiella pneumoniae = assay: Antibacterial activity against Klebsiella pneumoniae ATCC 700603 assessed as inhibition of bacterial growth incubated for 18 hrs by broth microdilution method; format: functional

SMILES | MIC (Enterococcus faecalis) | MIC [1] | MIC [2] | MIC (Streptococcus pneumoniae) | Activity (Escherichia coli) | MIC (Staphylococcus aureus [3]) | MIC [4] | Activity (Pseudomonas aeruginosa) | hemolysis at 1 h, 200 µM [5] | IC50 at 24 h [6] | IC50 at 24 h [7] | MIC (Staphylococcus aureus [8]) | MIC (Staphylococcus aureus [9]) | MIC (Enterococcus faecium) | MIC (Staphylococcus aureus [10]) | Activity (Klebsiella pneumoniae)
O=C(Nc1cccc(Cl)c1)N[C@H]1CCN(CCC(Oc2ccc(Cl)cc2)c2ccccc2)C1 (stereo partly drawn) | 3.12 µg/mL (≈ 6.45 µM) | 3.12 µg/mL (≈ 6.45 µM) | 6.25 µg/mL (≈ 12.9 µM) | 6.25 µg/mL (≈ 12.9 µM) | inactive | 1.56 µg/mL (≈ 3.22 µM) | 1.56 µg/mL (≈ 3.22 µM) | inactive | 11% | 3.12 µg/mL (≈ 6.45 µM) | 6.25 µg/mL (≈ 12.9 µM) | 3.12 µg/mL (≈ 6.45 µM) | 6.25 µg/mL (≈ 12.9 µM) | 3.12 µg/mL (≈ 6.45 µM) | 6.25 µg/mL (≈ 12.9 µM) | inactive
O=C(Nc1cccc(Cl)c1)N[C@H]1CCN(CCC(Oc2cccc(Cl)c2)c2ccccc2)C1 (stereo partly drawn) | 3.12 µg/mL (≈ 6.45 µM) | 3.12 µg/mL (≈ 6.45 µM) | 3.12 µg/mL (≈ 6.45 µM) | 6.25 µg/mL (≈ 12.9 µM) | inactive | 3.12 µg/mL (≈ 6.45 µM) | 3.12 µg/mL (≈ 6.45 µM) | inactive | 8% | 3.12 µg/mL (≈ 6.45 µM) | 6.25 µg/mL (≈ 12.9 µM) | 3.12 µg/mL (≈ 6.45 µM) | 3.12 µg/mL (≈ 6.45 µM) | 0.78 µg/mL (≈ 1.61 µM) | 3.12 µg/mL (≈ 6.45 µM) | inactive
O=C(Nc1cccc(F)c1)NC1CCN(CCC(Oc2ccc(C(F)(F)F)cc2)c2ccccc2)CC1 (stereo not drawn) | 3.12 µg/mL (≈ 6.06 µM) | 3.12 µg/mL (≈ 6.06 µM) | 3.12 µg/mL (≈ 6.06 µM) | 6.25 µg/mL (≈ 12.1 µM) | inactive | 6.25 µg/mL (≈ 12.1 µM) | 3.12 µg/mL (≈ 6.06 µM) | inactive | – | – | – | 1.56 µg/mL (≈ 3.03 µM) | 6.25 µg/mL (≈ 12.1 µM) | 0.78 µg/mL (≈ 1.51 µM) | 3.12 µg/mL (≈ 6.06 µM) | inactive
O=C(Nc1cccc(Cl)c1)N[C@@H]1CCN(CCC(Oc2ccc(C(F)(F)F)cc2)c2ccccc2)C1 (stereo partly drawn) | 3.12 µg/mL (≈ 6.03 µM) | 1.56 µg/mL (≈ 3.01 µM) | 3.12 µg/mL (≈ 6.03 µM) | 6.25 µg/mL (≈ 12.1 µM) | inactive | 3.12 µg/mL (≈ 6.03 µM) | 3.12 µg/mL (≈ 6.03 µM) | inactive | 9% | 3.12 µg/mL (≈ 6.03 µM) | 3.12 µg/mL (≈ 6.03 µM) | 1.56 µg/mL (≈ 3.01 µM) | 3.12 µg/mL (≈ 6.03 µM) | 1.56 µg/mL (≈ 3.01 µM) | 3.12 µg/mL (≈ 6.03 µM) | inactive
O=C(Nc1cccc(Cl)c1)NC1CCN(CCC(Oc2ccc(C(F)(F)F)cc2)c2ccccc2)CC1 (stereo not drawn) | 6.25 µg/mL (≈ 11.7 µM) | 3.12 µg/mL (≈ 5.87 µM) | 3.12 µg/mL (≈ 5.87 µM) | > 12.5 µg/mL | inactive | 6.25 µg/mL (≈ 11.7 µM) | 0.78 µg/mL (≈ 1.47 µM) | inactive | – | – | – | 3.12 µg/mL (≈ 5.87 µM) | 0.78 µg/mL (≈ 1.47 µM) | 1.56 µg/mL (≈ 2.93 µM) | 6.25 µg/mL (≈ 11.7 µM) | inactive
O=C(Nc1cccc(Cl)c1)N[C@H]1CCN(CCC(Oc2ccc(C(F)(F)F)cc2)c2ccccc2)C1 (stereo partly drawn) | 3.12 µg/mL (≈ 6.03 µM) | 3.12 µg/mL (≈ 6.03 µM) | 1.56 µg/mL (≈ 3.01 µM) | 6.25 µg/mL (≈ 12.1 µM) | inactive | 1.56 µg/mL (≈ 3.01 µM) | 1.56 µg/mL (≈ 3.01 µM) | inactive | 10% | 3.12 µg/mL (≈ 6.03 µM) | 6.25 µg/mL (≈ 12.1 µM) | 1.56 µg/mL (≈ 3.01 µM) | 3.12 µg/mL (≈ 6.03 µM) | 0.78 µg/mL (≈ 1.51 µM) | 3.12 µg/mL (≈ 6.03 µM) | inactive
O=C(Nc1cccc(Cl)c1)NC1CCN(CCC(Oc2cccc(F)c2)c2ccccc2)CC1 (racemic) | 6.25 µg/mL (≈ 13 µM) | 3.12 µg/mL (≈ 6.48 µM) | 6.25 µg/mL (≈ 13 µM) | 12.5 µg/mL (≈ 25.9 µM) | inactive | 6.25 µg/mL (≈ 13 µM) | 6.25 µg/mL (≈ 13 µM) | inactive | – | – | – | 3.12 µg/mL (≈ 6.48 µM) | 6.25 µg/mL (≈ 13 µM) | 1.56 µg/mL (≈ 3.24 µM) | 6.25 µg/mL (≈ 13 µM) | inactive
O=C(Nc1ccc(F)cc1)NC1CCN(CCC(Oc2ccc(C(F)(F)F)cc2)c2ccccc2)CC1 (racemic) | 6.25 µg/mL (≈ 12.1 µM) | 3.12 µg/mL (≈ 6.06 µM) | 3.12 µg/mL (≈ 6.06 µM) | > 12.5 µg/mL | inactive | 6.25 µg/mL (≈ 12.1 µM) | 6.25 µg/mL (≈ 12.1 µM) | inactive | – | – | – | 3.12 µg/mL (≈ 6.06 µM) | 6.25 µg/mL (≈ 12.1 µM) | 3.12 µg/mL (≈ 6.06 µM) | 3.12 µg/mL (≈ 6.06 µM) | inactive
O=C(NCC1CCN(CCC(Oc2cccc(Cl)c2)c2ccccc2)CC1)Nc1cccc(Cl)c1 (racemic) | 3.12 µg/mL (≈ 6.1 µM) | 3.12 µg/mL (≈ 6.1 µM) | 6.25 µg/mL (≈ 12.2 µM) | 6.25 µg/mL (≈ 12.2 µM) | inactive | 3.12 µg/mL (≈ 6.1 µM) | 1.56 µg/mL (≈ 3.04 µM) | inactive | 6% | 3.12 µg/mL (≈ 6.1 µM) | 6.25 µg/mL (≈ 12.2 µM) | 3.12 µg/mL (≈ 6.1 µM) | 6.25 µg/mL (≈ 12.2 µM) | 1.56 µg/mL (≈ 3.04 µM) | 6.25 µg/mL (≈ 12.2 µM) | inactive
O=C(NCC1CCN(CCC(Oc2ccc(C(F)(F)F)cc2)c2ccccc2)CC1)Nc1cccc(Cl)c1 (racemic) | 3.12 µg/mL (≈ 5.72 µM) | 1.56 µg/mL (≈ 2.86 µM) | 3.12 µg/mL (≈ 5.72 µM) | 12.5 µg/mL (≈ 22.9 µM) | inactive | 6.25 µg/mL (≈ 11.4 µM) | 1.56 µg/mL (≈ 2.86 µM) | inactive | 5% | 3.12 µg/mL (≈ 5.72 µM) | 3.12 µg/mL (≈ 5.72 µM) | 1.56 µg/mL (≈ 2.86 µM) | 3.12 µg/mL (≈ 5.72 µM) | 0.78 µg/mL (≈ 1.43 µM) | 3.12 µg/mL (≈ 5.72 µM) | inactive
O=C(Nc1cccc(Cl)c1)NC1CCN(CCC(Oc2ccc(F)cc2)c2ccccc2)CC1 (racemic) | 6.25 µg/mL (≈ 13 µM) | 3.12 µg/mL (≈ 6.48 µM) | 6.25 µg/mL (≈ 13 µM) | 12.5 µg/mL (≈ 25.9 µM) | inactive | 6.25 µg/mL (≈ 13 µM) | 6.25 µg/mL (≈ 13 µM) | inactive | – | – | – | 3.12 µg/mL (≈ 6.48 µM) | 6.25 µg/mL (≈ 13 µM) | 1.56 µg/mL (≈ 3.24 µM) | 6.25 µg/mL (≈ 13 µM) | inactive
O=C(Nc1cccc(Cl)c1)NC1CCN(CCC(Oc2ccccc2Cl)c2ccccc2)CC1 (racemic) | 6.25 µg/mL (≈ 12.5 µM) | 3.12 µg/mL (≈ 6.27 µM) | 3.12 µg/mL (≈ 6.27 µM) | 12.5 µg/mL (≈ 25.1 µM) | inactive | 6.25 µg/mL (≈ 12.5 µM) | 6.25 µg/mL (≈ 12.5 µM) | inactive | – | – | – | 1.56 µg/mL (≈ 3.13 µM) | 6.25 µg/mL (≈ 12.5 µM) | 6.25 µg/mL (≈ 12.5 µM) | 6.25 µg/mL (≈ 12.5 µM) | inactive
O=C(NCC1CCN(CCC(Oc2ccc(Cl)cc2)c2ccccc2)CC1)Nc1cccc(Cl)c1 (racemic) | 3.12 µg/mL (≈ 6.1 µM) | 3.12 µg/mL (≈ 6.1 µM) | 6.25 µg/mL (≈ 12.2 µM) | 6.25 µg/mL (≈ 12.2 µM) | inactive | 3.12 µg/mL (≈ 6.1 µM) | 3.12 µg/mL (≈ 6.1 µM) | inactive | 6% | 3.12 µg/mL (≈ 6.1 µM) | 12.5 µg/mL (≈ 24.4 µM) | 3.12 µg/mL (≈ 6.1 µM) | 6.25 µg/mL (≈ 12.2 µM) | 0.39 µg/mL (≈ 0.761 µM) | 6.25 µg/mL (≈ 12.2 µM) | inactive
O=C(Nc1cccc(Cl)c1)NC1CCN(CCC(Oc2ccc(Cl)cc2)c2ccccc2)CC1 (racemic) | 3.12 µg/mL (≈ 6.27 µM) | 1.56 µg/mL (≈ 3.13 µM) | 3.12 µg/mL (≈ 6.27 µM) | 6.25 µg/mL (≈ 12.5 µM) | inactive | 3.12 µg/mL (≈ 6.27 µM) | 3.12 µg/mL (≈ 6.27 µM) | inactive | < 1% | 6.25 µg/mL (≈ 12.5 µM) | 12.5 µg/mL (≈ 25.1 µM) | 1.56 µg/mL (≈ 3.13 µM) | 3.12 µg/mL (≈ 6.27 µM) | 1.56 µg/mL (≈ 3.13 µM) | 3.12 µg/mL (≈ 6.27 µM) | inactive
COc1cccc2c1C(=O)c1c(O)c3c(c(O)c1C2=O)C[C@@](O)(C(=O)CO)C[C@@H]3O[C@H]1C[C@H](N)[C@H](O)[C@H](C)O1 [DOXORUBICIN] | – | – | – | – | – | – | – | – | – | 0.39 µg/mL (≈ 0.718 µM) | 0.78 µg/mL (≈ 1.44 µM) | – | – | – | – | –

Source: ChEMBL document CHEMBL5346933, “Design and synthesis of novel arylurea derivatives of aryloxy(1-phenylpropyl) alicyclic diamines with antimicrobial activity against multidrug-resistant Gram-positive bacteria” (Eur J Med Chem, 2023)
